These results are taken from patent US10905120B2, “ABA receptor agonists that modulate transpiration” (The Regents of the University of California, priority 2016, dated 2021).

One experiment deals with T1, PYL2 (Arabidopsis thaliana, UniProt O80992).
T1 sequence (O80992 1-190): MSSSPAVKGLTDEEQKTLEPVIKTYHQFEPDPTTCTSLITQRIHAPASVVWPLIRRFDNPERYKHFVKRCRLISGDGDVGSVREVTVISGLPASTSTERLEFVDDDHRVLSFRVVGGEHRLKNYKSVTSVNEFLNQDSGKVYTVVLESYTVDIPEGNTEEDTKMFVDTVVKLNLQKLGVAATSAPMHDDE
T1 sequence (Q9CAJ0 23-511 partner): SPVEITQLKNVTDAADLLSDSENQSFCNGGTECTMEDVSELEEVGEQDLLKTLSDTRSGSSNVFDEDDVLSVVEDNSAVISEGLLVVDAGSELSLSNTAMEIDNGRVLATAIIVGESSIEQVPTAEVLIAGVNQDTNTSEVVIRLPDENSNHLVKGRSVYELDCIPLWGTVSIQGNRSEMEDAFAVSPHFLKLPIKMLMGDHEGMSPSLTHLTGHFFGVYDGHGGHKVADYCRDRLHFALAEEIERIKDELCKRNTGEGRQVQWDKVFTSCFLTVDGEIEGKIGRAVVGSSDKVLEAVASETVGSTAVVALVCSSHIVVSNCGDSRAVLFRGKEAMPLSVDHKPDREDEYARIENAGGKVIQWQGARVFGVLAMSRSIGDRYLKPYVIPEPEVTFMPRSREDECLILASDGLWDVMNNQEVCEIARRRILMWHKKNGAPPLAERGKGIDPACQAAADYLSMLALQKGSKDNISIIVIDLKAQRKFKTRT
Put plainly: PP2C inhibition assay, recombinant PYL2 receptor. The class given is biochemical. The method, then: (§1) Reactions were started by adding 40 μL of a reaction solution containing 25 mM 4-nitrophenyl phosphate in assay buffer, after which absorbance measurements were immediately collected using a 405 nm on Wallac plate reader. Reactions contained 100 nM PP2C and 200 nM PYR/PYL proteins. […] The dose response data was fitted to a log (inhibitor) vs response-(variable slope) model using non-linear regression to infer the IC50 values using Graph Pad Prism 6.0.

For experiment [1], the system named is Arabidopsis thaliana seeds. Briefly: Germination assay. The class given is in vivo. As to conditions: Minimal Inhibitory Concentration, 3 d in darkness after 4 d stratification. The method, then:
Germination experiments were performed with Arabidopsis thaliana seeds of wildtype Col0, Ler, or mutant backgrounds.
Seeds were sterilized by 30 sec incubation in 70% ethanol solution followed by a 5 min […] (while vigorously shaking) in a bleach-Tween solution. Afterwards, the sterilizing solutions were removed, and five washes were performed with sterile distilled water. To enhance complete removal of the solutions between the different steps, short centrifuge spins were performed. Finally, the now surface-sterilized seeds were re-suspended in an aseptic 0.1% agar solution to simplify distribution over multiwall plates. One drop of the solution contained on average 20-30 seeds.
In the multiwell plates, seeds were plated onto 0.7% agar Murashige amd Skoog (MS) plant growth medium containing one-half MS salts and 0.5% sucrose containing different concentrations of ABA, quinabactin, or the compound of interest. After 4 d of stratification at 4° C., the plates were transferred to a growth chamber in darkness and allowed to germinate for 3 d before germination was evaluated. The results are shown above in Table 1 and FIGS. 3A and 3B.

The target in the next experiment is T2, PYR1 (Arabidopsis thaliana, UniProt O49686).
T2 sequence (O49686 1-191): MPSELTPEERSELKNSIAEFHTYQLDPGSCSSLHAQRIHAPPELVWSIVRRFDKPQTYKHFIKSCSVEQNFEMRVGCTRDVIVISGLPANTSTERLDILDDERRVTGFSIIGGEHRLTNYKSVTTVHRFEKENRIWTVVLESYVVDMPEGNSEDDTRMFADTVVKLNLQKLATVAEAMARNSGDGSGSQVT
T2 sequence (Q9CAJ0 23-511 partner): T1 sequence (Q9CAJ0 23-511 partner)
Put plainly: PP2C inhibition assay, recombinant PYR1 receptor. The class given is biochemical. The method, then:
as §1

[2] abbreviates: recombinant receptor 200 nM, PP2C 100 nM, 4-nitrophenyl phosphate substrate, absorbance 405 nm, read-out: IC50 PYL2.
Setting [3] is: recombinant receptor 200 nM, PP2C 100 nM, 4-nitrophenyl phosphate substrate, absorbance 405 nm, read-out: IC50 PYR1.

In brackets after ≈: the same amount, converted by molar mass. Where two headings read alike, the source gives them in different places.

Broadly, the IC50 is the midpoint of a concentration-inhibition curve. Regarding `Cc1ccc(CS(=O)(=O)Nc2ccc(C#N)c(C)c2)cc1` [Ligand Q1, N-(4-Cyano-3-methylphenyl)-1-(4-methylphenyl)methanesulfonamide], the IC50 on PYL2 (setting [2]) was 20 ± 1.08 µM; on PYR1 (setting [3]) it was 246 ± 60 nM. Also, the “MIC (μM) Germination” value in experiment [1] turned out to be 10 µM (≈ 3 µg/mL).
Consider `Cc1ccc(CS(=O)(=O)Nc2ccc(C#N)c(Cl)c2)cc1` [Ligand Q2, N-(3-Chloro-4-cyanophenyl)-1-(4-methylphenyl)methanesulfonamide], for which the IC50 on PYL2 was > 50 µM; on PYR1, 3910 ± 122 nM. Also, in experiment [1], the “MIC (μM) Germination” value was found to be 25 µM (≈ 8.02 µg/mL).
On to `Cc1ccc(CS(=O)(=O)Nc2ccc(C#N)c(Br)c2)cc1` [Ligand Q3, N-(3-Bromo-4-cyanophenyl)-1-(4-methylphenyl)methanesulfonamide], for which the IC50 on PYL2 (setting [2]) was > 50 µM; at PYR1 (setting [3]) it was 2500 ± 151 nM. In addition, the “MIC (μM) Germination” value in experiment [1] is >25 µM.
On to `Cc1ccc(CS(=O)(=O)Nc2ccc(C#N)c(C(F)(F)F)c2)cc1` [Ligand Q4, N-(4-Cyano-3-(trifluoromethyl)-phenyl)-1-(4-methylphenyl)methanesulfonamide], for which the IC50 on PYL2 is 9.58 ± 0.102 µM; at PYR1, 258 ± 19 nM. The “MIC (μM) Germination” value in experiment [1] came to 10 µM (≈ 3.54 µg/mL).
Regarding `N#Cc1ccc(NS(=O)(=O)Cc2ccc([N+](=O)[O-])cc2)cc1C(F)(F)F` [Ligand Q5, N-[4-Cyano-3-(trifluoromethyl)phenyl]-1-(4-nitrophenyl)methanesulfonamide], the IC50 was > 50 µM on PYL2 and 8240 ± 520 nM on PYR1. For the same compound, the “MIC (μM) Germination” value in experiment [1] was >25 µM.
In the same order, the values of `N#Cc1ccc(NS(=O)(=O)Cc2ccc(N)cc2)cc1C(F)(F)F` [Ligand Q6, 1-(4-Aminophenyl)-N-[4-cyano-3-(trifluoromethyl)phenyl]methanesulfonamide] are > 50 µM, 3400 ± 200 nM and >25 µM.
For `N#Cc1ccc(NS(=O)(=O)Cc2ccc(Br)cc2)cc1C(F)(F)F` [Ligand Q7, 1-(4-Bromophenyl)-N-[4-cyano-3-(trifluoromethyl)phenyl]methanesulfonamide] the same measures were 31.4 ± 3.4 µM, 326 ± 7.7 nM and 10 µM (≈ 4.19 µg/mL).
For `N#Cc1ccc(NS(=O)(=O)Cc2ccc(C(F)(F)F)cc2)cc1C(F)(F)F` [Ligand Q9, N-[4-Cyano-3-(trifluoromethyl)phenyl]-1-[4-(trifluoromethyl)phenyl]methanesulfonamide] the same measures were > 50 µM, 3400 ± 270 nM and 10 µM (≈ 4.08 µg/mL).
As for `CC(=O)Nc1ccc(NS(=O)(=O)Cc2ccc(C)cc2)cc1C(F)(F)F` [Ligand Q10, N-[4-{[(4-Methylbenzyl)sulfonyl]amino}-2-(trifluoromethyl)phenyl]acetamide], the IC50 at PYL2 (setting [2]) was > 50 µM; at PYR1 (setting [3]), > 50000 nM. Besides, the “MIC (μM) Germination” value in experiment [1] was >25 µM.
For `CCCN(C(C)=O)c1ccc(NS(=O)(=O)Cc2ccc(C)cc2)cc1C(F)(F)F` [Ligand Q11, N-[4-{[(4-Methylbenzyl)sulfonyl]amino}-2-(trifluoromethyl)phenyl]-N-propylacetamide] the same measures were > 50 µM, > 50000 nM and >25 µM.
For `Cc1cc(NS(=O)(=O)Cc2ccc(C(F)(F)F)cc2)ccc1C#N` [Ligand Q13, N-(4-Cyano-3-methylphenyl)-1-[4-(trifluoromethyl)phenyl]methanesulfonamide] the same measures were > 50 µM, 1100 ± 183 nM and >25 µM.
`Cc1ccc(CS(=O)(=O)Nc2cc(C(F)(F)F)c(C#N)c(C(F)(F)F)c2)cc1` [Ligand Q14, N-(4-Cyano-3,5-(bistrifluoromethyl)phenyl)-1-(4-methylphenyl) methanesulfonamide]: the IC50 on PYL2 (setting [2]) was > 50 µM; at PYR1 (setting [3]) it was > 50000 nM. Further, the “MIC (μM) Germination” value in experiment [1] was >25 µM.
As for `Cc1ccc(CS(=O)(=O)Nc2cc(C)c(C#N)c(C)c2)cc1` [Ligand Q15, N-(4-Cyano-3,5-dimethylphenyl)-1-(4-methylphenyl)methanesulfonamide], the results for the IC50 on PYL2 (setting [2]) and on PYR1 (setting [3]) were 2.58 ± 0.222 µM and 98 ± 7 nM, respectively. Also, the “MIC (μM) Germination” value in experiment [1] came out at 10 µM (≈ 3.14 µg/mL).
For `Cc1ccc(CS(=O)(=O)Nc2cc(C(F)(F)F)c(C#N)cc2[N+](=O)[O-])cc1` [Ligand Q17, N-[4-Cyano-2-nitro-5-(trifluoromethyl)phenyl]-1-(4-methylphenyl) methanesulfonamide] the same measures were > 50 µM, > 50000 nM and >25 µM.
For `Cc1ccc(CS(=O)(=O)Nc2cc(C(F)(F)F)c(C#N)cc2N)cc1` [Ligand Q18, N-[2-Amino-4-cyano-5-(trifluoromethyl)phenyl]-1-(4-methylphenyl) methanesulfonamide] the same measures were > 50 µM, > 50000 nM and >25 µM.
For `COc1cc(NS(=O)(=O)Cc2ccc(C)cc2)ccc1C#N` [Ligand Q20, N-(4-Cyano-3-methoxyphenyl)-1-(4-methylphenyl)methanesulfonamide], the IC50 amounted to 11.8 ± 1.12 µM on PYL2 (setting [2]) and 130 ± 9 nM on PYR1 (setting [3]). Also, the “MIC (μM) Germination” value in experiment [1] is 5 µM (≈ 1.58 µg/mL).
For `Cc1cc(NS(=O)(=O)Cc2ccc(Cl)cc2)cc(C)c1C#N` [Ligand Q22, 1-(4-Chlorophenyl)-N-(4-cyano-3,5-dimethylphenyl)methanesulfonamide], the IC50 on PYL2 (setting [2]) came out at 5.63 ± 0.8 µM; at PYR1 (setting [3]) it was 197 ± 9 nM. For the same compound, in experiment [1], the “MIC (μM) Germination” value amounted to 10 µM (≈ 3.35 µg/mL).
As to `Cc1cc(NS(=O)(=O)Cc2ccc(C3CC3)cc2)cc(C)c1C#N` [Ligand Q23, N-(4-Cyano-3,5-dimethylphenyl)-1-(4-cyclopropylphenyl)methanesulfonamide], the IC50 amounted to 20.1 ± 1.46 µM at PYL2 (setting [2]) and 203 ± 25 nM at PYR1 (setting [3]). The “MIC (μM) Germination” value in experiment [1] turned out to be 10 µM (≈ 3.4 µg/mL).
Regarding `Cc1cc(NS(=O)(=O)Cc2ccc(Br)cc2F)cc(C)c1C#N` [Ligand Q24, 1-(4-Bromo-2-fluorophenyl)-N-(4-cyano-3,5-dimethylphenyl)methanesulfonamide], the IC50 on PYL2 stood at 11.9 ± 1.47 µM; on PYR1 it was 188 ± 19 nM. Also, the “MIC (μM) Germination” value in experiment [1] was found to be 10 µM (≈ 3.97 µg/mL).
In the case of `Cc1ccc(CS(=O)(=O)Nc2cc(C)c(C#N)c(Br)c2)cc1` [Ligand Q25, N-(3-Bromo-4-cyano-5-methylphenyl)-1-(4-methylphenyl)methanesulfonamide], the concentration for half-maximal inhibition (IC50) was 16.7 ± 0.788 µM at PYL2 (setting [2]) and 355 ± 34 nM on PYR1 (setting [3]). The “MIC (μM) Germination” value in experiment [1] amounted to 25 µM (≈ 9.48 µg/mL).
Turning to `Cc1ccc(CS(=O)(=O)Nc2cc(C)c(C#N)c(C3CC3)c2)cc1` [Ligand Q28, N-(4-Cyano-3-cyclopropyl-5-methylphenyl)-1-(4-methylphenyl) methanesulfonamide], the IC50 at PYL2 (setting [2]) amounted to 1.66 ± 0.046 µM; on PYR1 (setting [3]), 210 ± 36 nM. In addition, in experiment [1], the “MIC (μM) Germination” value was 10 µM (≈ 3.4 µg/mL).
As for `CCCN1C(=O)CCc2cc(NS(=O)(=O)Cc3ccc(C)cc3)ccc21` [QB, Quinabactin, reference compound], in experiment [1], the “MIC (μM) Germination” value came to 3 µM (≈ 1.12 µg/mL).
